Source: US8883745B2, “C—glycolipids with enhanced Th-1 profile” (New York University, priority 2006, dated 2014)

Key:
[1] = test system: IL-4; test: IL-4 levels in sera upon i.v. glycolipid administration to C57BL/6 mice (ELISA); type: in vivo; parameters: unit not given here; conditions: for IL-4 level, Total: total over hours 0-72
Method: (§1) Five- to six-week-old female C57BL/6 mice and BALB/c mice were purchased from Taconic. Each glycolipid was stored at 1 mg/ml in 100% DMSO. Mice were injected intravenously with 1 μg of each glyocolipid diluted in 200 μL sterile phosphate buffered saline (PBS). At indicated time points, sera were collected from each animal, and concentrations of IFN-γ, IL-4, and IL-12 in the sera were evaluated by enzyme-linked immunosorbent assay (ELISA). Serum concentrations of IFN-γ, IL-4, and IL-12 were evaluated using an ELISA kit (eBioscience, San Diego, Calif.). Briefly, 96 well flat-bottom ELISA plates (NUNC) were coated with capture antibody according to the manufacture's recommendation and incubated overnight at 4° C. The plates were washed with PBS+0.05% Tween 20 (PBS-T), then incubated with manufacturer provided blocking solution for 1 hr at room temperature to block non-specific binding sites. After washing with PBS-T, sera diluted 1:10 was added to the wells and incubated for 2 hrs at room temperature. Plates were then incubated at room temperature for 1 hr with biotintylated detection antibody, washed, incubated with avidin conjugated to horse radish peroxidase (HRP) for 30 min at room temperature, washed, and finally incubated with tetramethylbenzidine substrate solution in the dark for 10 minutes at room temperature. The antibodies, avidin-HRP, and substrate solution were all diluted according to the manufacture's recommendation. Reactions were stopped with 2.0N sulfuric acid and the cytokine concentration in each well was determined by comparing the absorbance at 450 nm in each well to known standards. The levels of Th1- and Th2-type cytokines were determined in two different genetic backgrounds, i.e., in C57BL/6 mice and BALB/c mice. The following compounds were administered: A=compound (A-1 trans-conformer), B=compound (A-2), C=compound (A-3), D=compound (A-4), E=compound (A-5), Z=control (PBS alone), CRONY=α-C-GalCer, KRN=α-GalCer, GCK109 (A-1 trans-conformer), GCK151 (A-1 cis-conformer), GCK152 (A-7). The levels of cytokines were measured at 0, 2, 6, 12, 24, 48, and 72 hours after the compound administration. The levels of Th1-type cytokines IFN-γ and IL-12 are summarized in FIGS. 2A-C and 3A-C, respectively. Table 7 provides IFN-γ/IL-4 and IL-12/IL-4 ratios for various compounds, which can be used as indicators of their ability to selectively stimulate Th1-type immune responses.

[2] = test system: IL-4; test: IL-4 levels in sera upon i.v. glycolipid administration to BALB/c mice (ELISA); type: in vivo; parameters: unit not given here; conditions: for IL-4 level, Total: total over hours 0-72
Method: as §1

SMILES: CCCCCCCCCCCCCCCCCCCCCCCCCCCCC(=O)N[C@@H](/C=C/[C@H]1O[C@H](CO)[C@H](O)[C@H](O)[C@H]1O)[C@H](O)[C@H](O)CCCCCCCCCCCCCC [A-2, (3S,4S,5R)-1-C-(α-D-galactopyranosyl)-3-(N-nonacosanoylamino)-4,5-nonadec-(1,2-E)-enediol]
- IL-4 level, average ([1]; hour 0): 46
- IL-4 level, test 1 ([1]; hour 0): 46
- IL-4 level, test 2 ([1]; hour 0): 46
- IL-4 level, average ([1]; hour 2): 443
- IL-4 level, test 1 ([1]; hour 2): 286
- IL-4 level, test 2 ([1]; hour 2): 600
- IL-4 level, average ([1]; hour 6): 110
- IL-4 level, test 1 ([1]; hour 6): 95
- IL-4 level, test 2 ([1]; hour 6): 125
- IL-4 level, average ([1]; hour 12): 56.5
- IL-4 level, test 1 ([1]; hour 12): 45
- IL-4 level, test 2 ([1]; hour 12): 68
- IL-4 level, average ([1]; hour 24): 52
- IL-4 level, test 1 ([1]; hour 24): 46
- IL-4 level, test 2 ([1]; hour 24): 58
- IL-4 level, average ([1]; hour 48): 56
- IL-4 level, test 1 ([1]; hour 48): 60
- IL-4 level, test 2 ([1]; hour 48): 52
- IL-4 level, average ([1]; hour 72): 61.5
- IL-4 level, test 1 ([1]; hour 72): 59
- IL-4 level, test 2 ([1]; hour 72): 64
- IL-4 level, Total [1]: 826
- IL-4 level, average ([2]; hour 0): 27
- IL-4 level, test 1 ([2]; hour 0): 27
- IL-4 level, test 2 ([2]; hour 0): 27
- IL-4 level, average ([2]; hour 2): 330
- IL-4 level, test 1 ([2]; hour 2): 263
- IL-4 level, test 2 ([2]; hour 2): 397
- IL-4 level, average ([2]; hour 6): 127
- IL-4 level, test 1 ([2]; hour 6): 90
- IL-4 level, test 2 ([2]; hour 6): 164
- IL-4 level, average ([2]; hour 12): 49.5
- IL-4 level, test 1 ([2]; hour 12): 48
- IL-4 level, test 2 ([2]; hour 12): 51
- IL-4 level, average ([2]; hour 24): 45.5
- IL-4 level, test 1 ([2]; hour 24): 43
- IL-4 level, test 2 ([2]; hour 24): 48
- IL-4 level, average ([2]; hour 48): 40.5
- IL-4 level, test 1 ([2]; hour 48): 42
- IL-4 level, test 2 ([2]; hour 48): 39
- IL-4 level, average ([2]; hour 72): 2
- IL-4 level, test 1 ([2]; hour 72): 2
- IL-4 level, test 2 ([2]; hour 72): 2
- IL-4 level, Total [2]: 623

SMILES: CCCCCCCCCCCCCCCCCC/C=C/CCCCCCCCC(=O)N[C@@H](/C=C/[C@H]1O[C@H](CO)[C@H](O)[C@H](O)[C@H]1O)[C@H](O)[C@H](O)CCCCCCCCCCCCCC [A-1]
- IL-4 level, average ([1]; hour 0): 46
- IL-4 level, test 1 ([1]; hour 0): 46
- IL-4 level, test 2 ([1]; hour 0): 46
- IL-4 level, average ([1]; hour 2): 1088
- IL-4 level, test 1 ([1]; hour 2): 914
- IL-4 level, test 2 ([1]; hour 2): 1262
- IL-4 level, average ([1]; hour 6): 109
- IL-4 level, test 1 ([1]; hour 6): 90
- IL-4 level, test 2 ([1]; hour 6): 128
- IL-4 level, average ([1]; hour 12): 55
- IL-4 level, test 1 ([1]; hour 12): 44
- IL-4 level, test 2 ([1]; hour 12): 66
- IL-4 level, average ([1]; hour 24): 56.5
- IL-4 level, test 1 ([1]; hour 24): 57
- IL-4 level, test 2 ([1]; hour 24): 56
- IL-4 level, average ([1]; hour 48): 44
- IL-4 level, test 1 ([1]; hour 48): 47
- IL-4 level, test 2 ([1]; hour 48): 41
- IL-4 level, average ([1]; hour 72): 88
- IL-4 level, test 1 ([1]; hour 72): 61
- IL-4 level, test 2 ([1]; hour 72): 115
- IL-4 level, Total [1]: 1487
- IL-4 level, average ([2]; hour 0): 27
- IL-4 level, test 1 ([2]; hour 0): 27
- IL-4 level, test 2 ([2]; hour 0): 27
- IL-4 level, average ([2]; hour 2): 431.5
- IL-4 level, test 1 ([2]; hour 2): 358
- IL-4 level, test 2 ([2]; hour 2): 505
- IL-4 level, average ([2]; hour 6): 95.5
- IL-4 level, test 1 ([2]; hour 6): 85
- IL-4 level, test 2 ([2]; hour 6): 106
- IL-4 level, average ([2]; hour 12): 51
- IL-4 level, test 1 ([2]; hour 12): 52
- IL-4 level, test 2 ([2]; hour 12): 50
- IL-4 level, average ([2]; hour 24): 41.5
- IL-4 level, test 1 ([2]; hour 24): 40
- IL-4 level, test 2 ([2]; hour 24): 43
- IL-4 level, average ([2]; hour 48): 44
- IL-4 level, test 1 ([2]; hour 48): 46
- IL-4 level, test 2 ([2]; hour 48): 42
- IL-4 level, average ([2]; hour 72): 4
- IL-4 level, test 1 ([2]; hour 72): 4
- IL-4 level, test 2 ([2]; hour 72): 4
- IL-4 level, Total [2]: 696

SMILES: CCCCCCCCCCCCCC[C@@H](O)[C@@H](O)[C@H](CC[C@H]1O[C@H](CO)[C@H](O)[C@H](O)[C@H]1O)NC(=O)CCCCCCCCCCCCCCCCCCCOCCCCC [A-5]
- IL-4 level, average ([1]; hour 0): 46
- IL-4 level, test 1 ([1]; hour 0): 46
- IL-4 level, test 2 ([1]; hour 0): 46
- IL-4 level, average ([1]; hour 2): 308
- IL-4 level, test 1 ([1]; hour 2): 283
- IL-4 level, test 2 ([1]; hour 2): 333
- IL-4 level, average ([1]; hour 6): 89
- IL-4 level, test 1 ([1]; hour 6): 75
- IL-4 level, test 2 ([1]; hour 6): 103
- IL-4 level, average ([1]; hour 12): 45
- IL-4 level, test 1 ([1]; hour 12): 42
- IL-4 level, test 2 ([1]; hour 12): 48
- IL-4 level, average ([1]; hour 24): 50
- IL-4 level, test 1 ([1]; hour 24): 46
- IL-4 level, test 2 ([1]; hour 24): 54
- IL-4 level, average ([1]; hour 48): 46
- IL-4 level, test 1 ([1]; hour 48): 44
- IL-4 level, test 2 ([1]; hour 48): 48
- IL-4 level, average ([1]; hour 72): 64.5
- IL-4 level, test 1 ([1]; hour 72): 69
- IL-4 level, test 2 ([1]; hour 72): 60
- IL-4 level, Total [1]: 649
- IL-4 level, average ([2]; hour 0): 27
- IL-4 level, test 1 ([2]; hour 0): 27
- IL-4 level, test 2 ([2]; hour 0): 27
- IL-4 level, average ([2]; hour 2): 156
- IL-4 level, test 1 ([2]; hour 2): 122
- IL-4 level, test 2 ([2]; hour 2): 190
- IL-4 level, average ([2]; hour 6): 67.5
- IL-4 level, test 1 ([2]; hour 6): 60
- IL-4 level, test 2 ([2]; hour 6): 75
- IL-4 level, average ([2]; hour 12): 45.5
- IL-4 level, test 1 ([2]; hour 12): 48
- IL-4 level, test 2 ([2]; hour 12): 43
- IL-4 level, average ([2]; hour 24): 41
- IL-4 level, test 1 ([2]; hour 24): 39
- IL-4 level, test 2 ([2]; hour 24): 43
- IL-4 level, average ([2]; hour 48): 40
- IL-4 level, test 1 ([2]; hour 48): 41
- IL-4 level, test 2 ([2]; hour 48): 39
- IL-4 level, average ([2]; hour 72): 3.4
- IL-4 level, test 1 ([2]; hour 72): 3.4
- IL-4 level, test 2 ([2]; hour 72): 3.4
- IL-4 level, Total [2]: 382
